Measurements taken from patent publication US12357701B2, “Anti-HER2 biparatopic antibody-drug conjugates and methods of use” (Zymeworks BC Inc., priority 2018, dated 2025).

Key:
Assay type in all cases: in vivo, cynomolgus monkeys
[1] = GLP toxicity study of v21252
Description: (§1) All animals were evaluated for changes in clinical signs, food consumption, body weight, blood pressure, ECGs, respiration rates (visual), clinical pathology (hematology, clinical chemistry, coagulation, urinalysis), organ weights, and macroscopic/microscopic examination of tissues.

[2] = Non-GLP repeat-dose toxicity study of v21252; conditions: after repeat administration of v21252 9 or 12 mg/kg; all below limit of quantitation except three animals
Description: as §1

[3] = Single-dose pharmacokinetics/tolerability study of v17597 and v21252; conditions: all below LLOQ
Description: General tolerability was assessed with clinical observations, body weight, food consumption, and clinical pathology (hematology and clinical chemistry).
Serum concentrations of total antibody were analyzed using an Electrochemiluminescence assay with Meso Scale Discovery platform (ECL/MSD) with anti-pertuzumab antibody as the capture agent and anti-trastuzumab sulfo-TAG as the detection agent.
Serum samples were precipitated with acetonitrile/methanol (50:50, v/v) and supernatants were analyzed. The liquid chromatography system used was a reverse phase column with a gradient flow consisting of water/acetic acid (100/0.05, v/v) and acetonitrile.
Non-compartmental analysis of the serum sample bioanalytical results was used to derive PK parameters (maximum serum concentration [Cmax], terminal half-life [T1/2], clearance [CL] and apparent volume of distribution [Vss]).

CCC(C)[C@@H]([C@@H](CC(=O)N1CCC[C@H]1[C@H](OC)[C@@H](C)C(=O)NS(=O)(=O)c1ccc(N)cc1)OC)N(C)C(=O)[C@@H](NC(=O)[C@H](C(C)C)N(C)C)C(C)C (stereo in doubt) [Compound 9, (S)—N-((3R,4S,5R)-1-((S)-2-((1R,2R)-3-((4-aminophenyl)sulfonamido)-1-methoxy-2-methyl-3-oxopropyl)pyrrolidin-1-yl)-3-methoxy-5-methyl-1-oxoheptan-4-yl)-2-((S)-2-(dimethylamino)-3-methylbutanamido)-N,3-dimethylbutanamide]
toxin (Compound 9) serum concentration ([1]; after repeat administrations of v21252, most concentrations below limit of quantitation): < 0.500 ng/mL | AUC(0-t) ([1]; male, cynomolgus monkey, serum, iv, 18 mg/kg): 125 ng·h/mL | payload (Compound 9) serum concentration [2]: < 0.500 ng/mL | toxin (Compound 9) serum concentration ([3]; after single dose of v17597 (3, 6 or 9 mg/kg)): < 5.00 ng/mL | toxin (Compound 9) serum concentration ([3]; after single dose of v21252 (9 or 12 mg/kg)): < 5.00 ng/mL
